Results from US10221181B2, “6-amino-7-bicyclo-7-deaza-purine derivatives as protein kinase inhibitors” (NERVIANO MEDICAL SCIENCES S.r.l., priority 2014, dated 2019).
Like-named read-outs stand apart in the source and are kept apart here.

How the values were obtained:
Assay type in all cases: cell-based
[1] = tested on: LC-2/ad human lung adenocarcinoma, harboring the CCDC6-RET fusion protein; assay: In vitro cell proliferation assay, LC-2/ad
Experimental: (§1) In Vitro Cell Proliferation Assay
(§2) To evaluate the antiproliferative activity of a compound of formula (I) the following human cell lines were used: A2780 ovarian carcinoma; TT medullary thyroid carcinoma, harboring a mutated RET-C634W receptor; LC-2/ad human lung adenocarcinoma, harboring the CCDC6-RET fusion protein. Exponentially growing cells were seeded and incubated at 37° C. in a humidified 5% CO2 atmosphere using appropriate medium supplemented with 10% Fetal Bovine Serum. 24 hours following cell plating, scalar doses of the compounds dissolved in 0.1% DMSO were added to the medium and cells were exposed to drugs for either 72 hours (A2780) or 144 hours (TT and LC-2/ad), according to their different proliferation rate. At the end of treatment, cell proliferation was determined by an intracellular ATP monitoring system (CellTiterGlo—Promega), following manufacturer's instructions, and using an Envision instrument (PerkinElmer) as reader. Data obtained from compound versus vehicle treated cells were compared using Assay Explorer (Symyx Technologies Inc) software. IC50 values were calculated using sigmoidal interpolation curve fitting. In the following Table A the antiproliferative activity of representative compounds of formula (I) on one medullary thyroid carcinoma cell line expressing the aforementioned mutated forms of RET (TT) and on one lung adenocarcinoma cell line harboring the aforementioned fusion form of RET (LC-2/ad) is reported. As control, the antiproliferative activity of the same compounds on an unrelated non RET-dependent cell line (A2780) is reported. All these compounds show remarkable activity on RET-driven cellular models with respect to the unrelated ones.

[2] = tested on: A2780 ovarian carcinoma; assay: In vitro cell proliferation assay, A2780 (non RET-dependent control); conditions: Homo sapiens
Experimental: as §1, §2

[3] = tested on: TT medullary thyroid carcinoma, harboring a mutated RET-C634W receptor; assay: In vitro cell proliferation assay, TT; conditions: Homo sapiens
Experimental: as §1, §2

[4] = antiproliferative activity, 144 hours exposure, CellTiterGlo ATP readout, CCDC6-RET fusion, read-out: LC-2/ad IC50
[5] = A2780, antiproliferative activity, 72 hours exposure, CellTiterGlo ATP readout, unrelated non RET-dependent cell line, read-out: A2780 IC50
[6] = antiproliferative activity, 144 hours exposure, CellTiterGlo ATP readout, RET-C634W, read-out: TT IC50
[7] = 144 h, read-out: LC-2/ad IC50 (μM)
[8] = A2780, 72 h, read-out: A2780 IC50 (μM)

Row | IC50 [1, 4] | IC50 [2, 5] | IC50 [3, 6] | SMILES | IC50 [1, 7] | IC50 [2, 8] | IC50 ([3]; 144 h, read-out: TT IC50 (μM))
1 | 0.011 µM | 0.814 µM | 0.009 µM | Nc1ncnc2c1c(-c1ccc3c(C(=O)NC4CC4)cccc3c1)cn2C1CCOCC1 [cmpd 8, 6-[4-Amino-7-(tetrahydro-pyran-4-yl)-7H-pyrrolo[2,3-d]pyrimidin-5-yl]-naphthalene-1-carboxylic acid cyclopropylamide] | – | – | –
2 | 0.008 µM | 0.072 µM | 0.002 µM | CC(C)n1cc(-c2ccc3c(C(=O)Nc4ccc(CN5CCN(C)CC5)c(C(F)(F)F)c4)cccc3c2)c2c(N)ncnc21 [cmpd 10, 6-(4-Amino-7-isopropyl-7H-pyrrolo[2,3-d]pyrimidin-5-yl)-naphthalene-1-carboxylic acid [4-(4-methyl-piperazin-1-ylmethyl)-3-trifluoromethyl-phenyl]-amide] | – | – | –
3 | 0.034 µM | 0.961 µM | 0.028 µM | CC(C)n1cc(-c2ccc3c(C(=O)NC4CCC4)cccc3c2)c2c(N)ncnc21 [cmpd 11, 6-(4-Amino-7-isopropyl-7H-pyrrolo[2,3-d]pyrimidin-5-yl)-naphthalene-1-carboxylic acid cyclobutylamide] | – | – | –
4 | 0.051 µM | 1.84 µM | 0.042 µM | Nc1ncnc2c1c(-c1ccc3c(C(=O)NC4CC4)cccc3c1)cn2C1CCC1 [cmpd 12, 6-(4-Amino-7-cyclobutyl-7H-pyrrolo[2,3-d]pyrimidin-5-yl)-naphthalene-1-carboxylic acid cyclopropylamide] | – | – | –
5 | 0.006 µM | 0.463 µM | 0.007 µM | Nc1ncnc2c1c(-c1ccc3c(C(=O)NC4CC4)cccc3c1)cn2CC1CC1 [cmpd 13, 6-(4-Amino-7-cyclopropylmethyl-7H-pyrrolo[2,3-d]pyrimidin-5-yl)-naphthalene-1-carboxylic acid cyclopropylamide] | – | – | –
6 | 0.04 µM | 2.34 µM | 0.03 µM | Nc1ncnc2c1c(-c1ccc3c(C(=O)NC4CC4)cccc3c1)cn2C1CCC(F)(F)CC1 [cmpd 30, 6-[4-Amino-7-(4,4-difluoro-cyclohexyl)-7H-pyrrolo[2,3-d]pyrimidin-5-yl]-naphthalene-1-carboxylic acid cyclopropylamide] | – | – | –

Second part, the molecule before the results:

Row | SMILES | IC50 [1, 4] | IC50 [2, 5] | IC50 [3, 6] | IC50 [1, 7] | IC50 [2, 8] | IC50 ([3]; 144 h, read-out: TT IC50 (μM))
7 | CC(C)n1cc(-c2ccc3c(C(=O)NC4CC4)cccc3c2)c2c(N)ncnc21 [cmpd 1, 6-(4-Amino-7-isopropyl-7H-pyrrolo[2,3-d]pyrimidin-5-yl)-naphthalene-1-carboxylic acid cyclopropylamide] | 0.003 µM | 0.867 µM | 0.001 µM | – | – | –
8 | Nc1ncnc2c1c(-c1ccc3c(C(=O)NC4CC4)cccc3c1)cn2C1CCCC1 [cmpd 3, 6-(4-Amino-7-cyclopentyl-7H-pyrrolo[2,3-d]pyrimidin-5-yl)-naphthalene-1-carboxylic acid cyclopropylamide] | 0.006 µM | 0.385 µM | 0.003 µM | – | – | –
9 | CC(C)n1cc(-c2ccc3c(C(N)=O)cccc3c2)c2c(N)ncnc21 [cmpd 4, 6-(4-Amino-7-isopropyl-7H-pyrrolo[2,3-d]pyrimidin-5-yl)-naphthalene-1-carboxylic acid amide] | 0.021 µM | 2.42 µM | 0.017 µM | – | – | –
10 | CC(C)NC(=O)c1cccc2cc(-c3cn(C(C)C)c4ncnc(N)c34)ccc12 [cmpd 5, 6-(4-Amino-7-isopropyl-7H-pyrrolo[2,3-d]pyrimidin-5-yl)-naphthalene-1-carboxylic acid isopropylamide] | – | – | – | 0.082 µM | 2.94 µM | 0.086 µM
11 | CNC(=O)c1cccc2cc(-c3cn(C(C)C)c4ncnc(N)c34)ccc12 [cmpd 6, 6-(4-Amino-7-isopropyl-7H-pyrrolo[2,3-d]pyrimidin-5-yl)-naphthalene-1-carboxylic acid methylamide] | 0.049 µM | 0.348 µM | 0.024 µM | – | – | –
12 | CC(C)n1cc(-c2ccc3c(C(=O)NCC(F)(F)F)cccc3c2)c2c(N)ncnc21 [cmpd 7, 6-(4-Amino-7-isopropyl-7H-pyrrolo[2,3-d]pyrimidin-5-yl)-naphthalene-1-carboxylic acid (2,2,2-trifluoro-ethyl)-amide] | 0.046 µM | 2.81 µM | 0.048 µM | – | – | –
13 | CC(C)n1cc(-c2ccc3c(c2)CCN3C(=O)NC2CC2)c2c(N)ncnc21 [cmpd 16, 5-(4-Amino-7-isopropyl-7H-pyrrolo[2,3-d]pyrimidin-5-yl)-2,3-dihydro-indole-1-carboxylic acid cyclopropylamide] | – | – | – | 0.084 µM | 2.19 µM | 0.077 µM
